Measured values published in US7244850B2, “Benzimidazole derivatives, compositions containing them, preparation thereof and uses thereof” (AstraZeneca AB, priority 2003, dated 2007).

What was measured:
human CB1 receptor = target: T1, human CB1 receptor (Homo sapiens, UniProt P21554); experiment: hCB1 receptor binding (3H-CP55,940 displacement); conditions: hCB1 membranes, 3H-CP55,940 radioligand; Ki=IC50/(1+[rad]/Kd); read-out: Ki towards human CB1 receptors
T1 construct: purchased Receptor Biology
T1 sequence (P21554 whole entry): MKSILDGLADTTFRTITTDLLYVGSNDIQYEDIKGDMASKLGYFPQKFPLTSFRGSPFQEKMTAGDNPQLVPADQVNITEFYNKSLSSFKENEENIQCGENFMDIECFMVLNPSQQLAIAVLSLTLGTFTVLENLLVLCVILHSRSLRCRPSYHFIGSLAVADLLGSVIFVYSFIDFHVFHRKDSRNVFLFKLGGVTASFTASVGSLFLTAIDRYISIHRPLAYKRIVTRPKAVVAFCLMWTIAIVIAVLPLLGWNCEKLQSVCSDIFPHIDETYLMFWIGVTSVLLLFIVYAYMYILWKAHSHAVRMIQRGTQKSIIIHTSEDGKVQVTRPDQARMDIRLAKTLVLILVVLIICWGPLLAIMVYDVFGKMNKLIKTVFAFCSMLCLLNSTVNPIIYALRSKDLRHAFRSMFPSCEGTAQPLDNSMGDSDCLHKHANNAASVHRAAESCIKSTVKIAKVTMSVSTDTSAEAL
Procedure: (§1) Human CB1 receptor from Receptor Biology (hCB1) or human CB2 receptor from BioSignal (hCB2) membranes are thawed at 37° C., passed 3 times through a 25-gauge blunt-end needle, diluted in the cannabinoid binding buffer (50 mM Tris, 2.5 mM EDTA, 5 mM MgCl2, and 0.5 mg/mL BSA fatty acid free, pH 7.4) and aliquots containing the appropriate amount of protein are distributed in 96-well plates. The IC50 of the compounds of the invention at hCB1 and hCB2 are evaluated from 10-point dose-response curves done with ^3H-CP55,940 at 20000 to 25000 dpm per well (0.17-0.21 nM) in a final volume of 300 μl. The total and non-specific binding are determined in the absence and presence of 0.2 μM of HU210 respectively. The plates are vortexed and incubated for 60 minutes at room temperature, filtered through Unifilters GF/B (presoaked in 0.1% polyethyleneimine) with the Tomtec or Packard harvester using 3 mL of wash buffer (50 mM Tris, 5 mM MgCl2, 0.5 mg BSA pH 7.0). The filters are dried for 1 hour at 55° C. The radioactivity (cpm) is counted in a TopCount (Packard) after adding 65 μl/well of MS-20 scintillation liquid.
(§2) Based on the above assays, the dissociation constant (Ki) for a particular compound of the invention towards a particular receptor is determined using the following equation: Ki=IC50/(1+[rad]/Kd), […]

human CB2 receptor = target: T2, human CB2 receptor (Homo sapiens, UniProt P34972); experiment: hCB2 receptor binding (3H-CP55,940 displacement)
T2 construct: purchased BioSignal
T2 sequence (P34972 whole entry): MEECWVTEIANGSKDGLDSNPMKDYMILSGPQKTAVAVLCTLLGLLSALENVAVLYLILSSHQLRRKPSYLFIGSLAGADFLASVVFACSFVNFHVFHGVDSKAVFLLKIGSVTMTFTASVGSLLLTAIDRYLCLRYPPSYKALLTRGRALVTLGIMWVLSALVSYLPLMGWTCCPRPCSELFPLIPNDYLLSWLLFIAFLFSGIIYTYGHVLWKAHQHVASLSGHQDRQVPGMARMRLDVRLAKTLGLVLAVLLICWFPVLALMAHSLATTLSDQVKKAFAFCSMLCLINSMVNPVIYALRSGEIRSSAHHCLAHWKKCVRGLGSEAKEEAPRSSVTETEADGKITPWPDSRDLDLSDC
Procedure: as §1, §2

CC(C)(C)c1nc2cc(C(=O)N(CC(F)(F)F)CC(F)(F)F)ccc2n1CC1CCCCC1 [compound 1, 2-tert-Butyl-1-(cyclohexylmethyl)-N,N-bis(2,2,2-trifluoroethyl)1H-benzimidazole-5-carboxamide]
Ki (human CB1 receptor): ~0.034 µM | Ki (human CB2 receptor): ~0.033 µM
